Data published in patent US10065950B2, “Substituted thiazoles as HIV integrase inhibitors” (Japan Tobacco Inc., priority 2010, dated 2018).

What follows are compounds tested against HIV-1 pNL4-3 integrase (Human immunodeficiency virus type 1 group M subtype B (isolate NY5) (HIV-1), UniProt P12497) (assay: Determination of enzyme (HIV integrase) inhibitory activity). Settings: calculated from inhibition rate (fluorescence).
Assay type: biochemical
Method in brief: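 Full-length pNL4-3 integrase from E. coli (0.75 μM stock) reacted 60 min at 37° C with compound and biotinylated donor DNA bound to streptavidin plates, in MOPS buffer with 5 mM MgCl2 and 10% DMSO. Digoxigenin-labelled target DNA (25 nM stock) then added for 20 min; strand transfer read by peroxidase anti-digoxigenin fluorescence (Ex 325/Em 420 nm).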
With CC(C)N1C[C@@](C)(C(=O)N2CCCC2)n2cc(-c3nnc(Cc4ccc(F)cc4F)s3)c(=O)c(O)c2C1=O [Example 172] the IC50 was 14 nM.
Work on CCNC(=O)[C@@]1(C)CN(C(C)C)C(=O)c2c(O)c(=O)c(-c3nnc(Cc4ccc(F)cc4F)s3)cn21 [Example 173] yielded an IC50 of 16 nM.
Compound CCNC(=O)[C@]1(C)CN(C(C)C)C(=O)c2c(O)c(=O)c(-c3nnc(Cc4ccc(F)cc4F)s3)cn21 [Example 174] has an IC50 of 14 nM.
Work on CC(C)N1CC2(CC2)n2cc(-c3nnc(Cc4ccc(F)cc4)s3)c(=O)c(O)c2C1=O [Example 175] yielded an IC50 of 9.5 nM.
For CC(C)N1C(=O)c2c(O)c(=O)c(-c3nnc(Cc4ccc(F)cc4)s3)cn2CC12CC2 [Example 176], the IC50 was 8.5 nM.
With CC(C)N1C[C@](C)(C(=O)N(C)C)n2cc(-c3nnc(Cc4ccc(F)cc4)s3)c(=O)c(O)c2C1=O [Example 177] the IC50 was 17 nM.
In the case of CN(C)C(=O)[C@@]1(C)CN(C2CC2)C(=O)c2c(O)c(=O)c(-c3nnc(Cc4ccc(F)cc4)s3)cn21 [Example 178], the IC50 is reported as 20 nM.
Compound CC(C)N1C[C@](C)(C(=O)N2CCCC2)n2cc(-c3nnc(Cc4ccc(F)cc4)s3)c(=O)c(O)c2C1=O [Example 179] has an IC50 of 19 nM.
CCNC(=O)[C@@]1(C)CN(C(C)C)C(=O)c2c(O)c(=O)c(-c3nnc(Cc4ccc(F)cc4)s3)cn21 [Example 180] showed an IC50 of 10 nM.
CN(C)C(=O)[C@@]1(C)CN(C(C)(C)C)C(=O)c2c(O)c(=O)c(-c3nnc(Cc4ccc(F)cc4)s3)cn21 [Example 181] gave an IC50 of 14 nM.
CC(C)N1C(=O)c2c(O)c(=O)c(-c3nnc(Cc4ccc(F)cc4)s3)cn2C[C@H]1CN(C)C(=O)C(C)(C)C [Example 182] was tested, and the IC50 was 9.7 nM.
CCC(C)(C)C(=O)N(C)C[C@@H]1Cn2cc(-c3nnc(Cc4ccc(F)cc4)s3)c(=O)c(O)c2C(=O)N1C(C)C [Example 183] was tested, and the IC50 was 10 nM.
For CC(C)N1C(=O)c2c(O)c(=O)c(-c3nnc(Cc4ccc(F)cc4F)s3)cn2C[C@H]1CN(C)C(=O)C(C)(C)C [Example 184], the IC50 was 6 nM.
CNC(=O)[C@@]1(C)CN(C(C)C)C(=O)c2c(O)c(=O)c(-c3nnc(Cc4ccc(F)cc4)s3)cn21 [Example 185] was tested, and the IC50 was 15 nM.
CC(C)CNC(=O)[C@@]1(C)CN(C(C)C)C(=O)c2c(O)c(=O)c(-c3nnc(Cc4ccc(F)cc4)s3)cn21 [Example 186] gave an IC50 of 18 nM.
CCNC(=O)[C@@]1(C)CN(C2CC2)C(=O)c2c(O)c(=O)c(-c3nnc(Cc4ccc(F)cc4)s3)cn21 [Example 187] showed an IC50 of 19 nM.
CC(C)(C)N1C[C@](C)(C(=O)N2CCCC2)n2cc(-c3nnc(Cc4ccc(F)cc4)s3)c(=O)c(O)c2C1=O [Example 188] gave an IC50 of 18 nM.
With CCNC(=O)[C@@]1(C)CN(C(C)(C)C)C(=O)c2c(O)c(=O)c(-c3nnc(Cc4ccc(F)cc4)s3)cn21 [Example 189] the IC50 was 20 nM.
CNC(=O)[C@]1(C)CN(C(C)C)C(=O)c2c(O)c(=O)c(-c3nnc(Cc4ccc(F)cc4F)s3)cn21 [Example 190] was tested, and the IC50 was 11 nM.
Compound CNC(=O)[C@@]1(C)CN(C(C)C)C(=O)c2c(O)c(=O)c(-c3nnc(Cc4ccc(F)cc4F)s3)cn21 [Example 191] has an IC50 of 12 nM.
In the case of CC(C)N1C[C@@H](C(C)(C)C)n2cc(-c3nnc(Cc4ccc(F)cc4)s3)c(=O)c(O)c2C1=O [Example 192], the IC50 is reported as 15 nM.
CC(C)N1C[C@H](C(C)(C)C)n2cc(-c3nnc(Cc4ccc(F)cc4)s3)c(=O)c(O)c2C1=O [Example 193] gave an IC50 of 11 nM.
With CC(C)[C@H]1CN(C(C)C)C(=O)c2c(O)c(=O)c(-c3nnc(Cc4ccc(F)cc4)s3)cn21 [Example 194] the IC50 was 8.2 nM.
For COC[C@@H]1Cn2cc(-c3nnc(Cc4ccc(F)cc4)s3)c(=O)c(O)c2C(=O)N1C1CCC1 [Example 195], the IC50 was 5.9 nM.
In the case of COC[C@@H]1Cn2cc(-c3nnc(Cc4ccc(F)cc4)s3)c(=O)c(O)c2C(=O)N1C1CCCC1 [Example 196], the IC50 is reported as 6.7 nM.
CC(=O)N(C)C[C@@]1(C)CN(C(C)C)C(=O)c2c(O)c(=O)c(-c3nnc(Cc4ccc(F)cc4F)s3)cn21 [Example 197] showed an IC50 of 14 nM.
For COC[C@@H]1Cn2cc(-c3nnc(Cc4ccc(F)cc4)s3)c(=O)c(O)c2C(=O)N1C(C)C1CC1 (some centres unmarked) [Example 198], the IC50 was 5.7 nM.
For CCN1C[C@](C)(C(=O)N(C)C)n2cc(-c3nnc(Cc4ccc(F)cc4)s3)c(=O)c(O)c2C1=O [Example 199], the IC50 was 8.4 nM.
CCN1C[C@](C)(C(=O)N2CCCC2)n2cc(-c3nnc(Cc4ccc(F)cc4)s3)c(=O)c(O)c2C1=O [Example 200] was tested, and the IC50 was 9.6 nM.
CCNC(=O)[C@@]1(C)CN(CC)C(=O)c2c(O)c(=O)c(-c3nnc(Cc4ccc(F)cc4)s3)cn21 [Example 201] gave an IC50 of 9.5 nM.
For COCCN(C)C(=O)[C@@]1(C)CN(C(C)C)C(=O)c2c(O)c(=O)c(-c3nnc(Cc4ccc(F)cc4)s3)cn21 [Example 202], the IC50 was 13 nM.
For CC(C)N1C[C@](C)(C(=O)N2CCOCC2)n2cc(-c3nnc(Cc4ccc(F)cc4)s3)c(=O)c(O)c2C1=O [Example 203], the IC50 was 13 nM.
Work on CC(C)N1C[C@](C)(C(=O)N2CC[C@H](O)C2)n2cc(-c3nnc(Cc4ccc(F)cc4)s3)c(=O)c(O)c2C1=O [Example 204] yielded an IC50 of 13 nM.
For CC(C)N1C[C@](C)(C(=O)N2CC[C@@H](O)C2)n2cc(-c3nnc(Cc4ccc(F)cc4)s3)c(=O)c(O)c2C1=O [Example 205], the IC50 was 13 nM.
COC[C@@H]1Cn2cc(-c3nnc(Cc4ccc(F)cc4)s3)c(=O)c(O)c2C(=O)N1C(C)C1CC1 (some centres unmarked) [Example 206] gave an IC50 of 5.9 nM.
With CCC(=O)N(C)C[C@@]1(C)CN(C(C)C)C(=O)c2c(O)c(=O)c(-c3nnc(Cc4ccc(F)cc4F)s3)cn21 [Example 207] the IC50 was 24 nM.
CC(C)N1C[C@](C)(C(=O)N2CC(O)C2)n2cc(-c3nnc(Cc4ccc(F)cc4)s3)c(=O)c(O)c2C1=O [Example 208] showed an IC50 of 12 nM.
In the case of COC1CN(C(=O)[C@@]2(C)CN(C(C)C)C(=O)c3c(O)c(=O)c(-c4nnc(Cc5ccc(F)cc5)s4)cn32)C1 [Example 209], the IC50 is reported as 12 nM.
CC(C)N1C[C@](C)(CN(C)S(C)(=O)=O)n2cc(-c3nnc(Cc4ccc(F)cc4F)s3)c(=O)c(O)c2C1=O [Example 210] showed an IC50 of 23 nM.
CO[C@@H]1CCN(C(=O)[C@@]2(C)CN(C(C)C)C(=O)c3c(O)c(=O)c(-c4nnc(Cc5ccc(F)cc5)s4)cn32)C1 [Example 211] gave an IC50 of 16 nM.
CO[C@H]1CCN(C(=O)[C@@]2(C)CN(C(C)C)C(=O)c3c(O)c(=O)c(-c4nnc(Cc5ccc(F)cc5)s4)cn32)C1 [Example 212] showed an IC50 of 14 nM.
With CO[C@@H]1CCN(C(=O)[C@@]2(C)CN(C(C)C)C(=O)c3c(O)c(=O)c(-c4ncc(Cc5ccc(F)cc5)s4)cn32)C1 [Example 213] the IC50 was 15 nM.
CO[C@H]1CCN(C(=O)[C@@]2(C)CN(C(C)C)C(=O)c3c(O)c(=O)c(-c4ncc(Cc5ccc(F)cc5)s4)cn32)C1 [Example 214] gave an IC50 of 16 nM.
Work on COC[C@@H]1Cn2cc(-c3ncc(Cc4ccc(F)cc4)s3)c(=O)c(O)c2C(=O)N1CC1CC1 [Example 217] yielded an IC50 of 5.3 nM.
For CCOC[C@@H]1Cn2cc(-c3ncc(Cc4ccc(F)cc4)s3)c(=O)c(O)c2C(=O)N1CC1CC1 [Example 218], the IC50 was 6.5 nM.
CCOc1cc(F)ccc1Cc1nnc(-c2cn3c(c(O)c2=O)C(=O)N(C(C)C)C[C@@H]3COC)s1 [Example 219] gave an IC50 of 15 nM.
Work on COC[C@H]1CN(C(C)C)C(=O)c2c(O)c(=O)c(-c3nnc(Cc4c(F)cc(F)cc4OC)s3)cn21 [Example 220] yielded an IC50 of 6.8 nM.
CC(C)[C@@H]1Cn2cc(-c3nnc(Cc4ccc(F)cc4)s3)c(=O)c(O)c2C(=O)N1C(C)C [Example 221] gave an IC50 of 8.4 nM.
For CCOC[C@@H]1Cn2cc(-c3ncc(Cc4ccc(F)cc4)s3)c(=O)c(O)c2C(=O)N1CC [Example 222], the IC50 was 6.5 nM.
For CC(C)N1C[C@@](C)(C(=O)N2CCC2)n2cc(-c3ncc(Cc4ccc(F)cc4)s3)c(=O)c(O)c2C1=O [Example 223], the IC50 was 12 nM.
In the case of CC(C)[C@H]1Cn2cc(-c3nnc(Cc4ccc(F)cc4)s3)c(=O)c(O)c2C(=O)N1C(C)C [Example 224], the IC50 is reported as 7.3 nM.
Work on CC(C)N1C[C@@](C)(C(=O)N2CCCC2)n2cc(-c3ncc(Cc4ccc(F)cc4)s3)c(=O)c(O)c2C1=O [Example 225] yielded an IC50 of 18 nM.
Work on CCNC(=O)[C@]1(C)CN(C(C)C)C(=O)c2c(O)c(=O)c(-c3ncc(Cc4ccc(F)cc4)s3)cn21 [Example 226] yielded an IC50 of 13 nM.
For CNC(=O)[C@]1(C)CN(C(C)C)C(=O)c2c(O)c(=O)c(-c3ncc(Cc4ccc(F)cc4)s3)cn21 [Example 227], the IC50 was 13 nM.
COC[C@H]1CN(C(C)C)C(=O)c2c(O)c(=O)c(-c3nnc(Cc4cccc(Cl)c4)s3)cn21 [Example 228] showed an IC50 of 11 nM.
With COC[C@H]1CN(C(C)C)C(=O)c2c(O)c(=O)c(-c3nnc(Cc4ccc(Cl)cc4F)s3)cn21 [Example 229] the IC50 was 12 nM.
Work on COC[C@H]1CN(C(C)C)C(=O)c2c(O)c(=O)c(-c3nnc(Cc4ccc(F)cc4Br)s3)cn21 [Example 230] yielded an IC50 of 69 nM.
In the case of COC[C@H]1CN(C(C)C)C(=O)c2c(O)c(=O)c(-c3nnc(Cc4ccc(F)cc4C)s3)cn21 [Example 231], the IC50 is reported as 11 nM.
COC[C@@H]1[C@H](C)n2cc(-c3nnc(Cc4ccc(F)cc4)s3)c(=O)c(O)c2C(=O)N1C(C)C [Example 232] showed an IC50 of 15 nM.
CC(C)N1C(=O)c2c(O)c(=O)c(-c3nnc(Cc4ccc(F)cc4)s3)cn2C[C@@H]1C [Example 233] gave an IC50 of 6.4 nM.
CC(C)N1C[C@@](C)(C(=O)N(C)C)n2cc(-c3ncc(Cc4ccc(F)cc4)s3)c(=O)c(O)c2C1=O [Example 234] gave an IC50 of 18 nM.
In the case of COCCN(C)C(=O)[C@]1(C)CN(C(C)C)C(=O)c2c(O)c(=O)c(-c3ncc(Cc4ccc(F)cc4)s3)cn21 [Example 235], the IC50 is reported as 16 nM.
CC(C)N1C[C@](C)(C(=O)N2CCC2)n2cc(-c3ncc(Cc4ccc(F)cc4)s3)c(=O)c(O)c2C1=O [Example 236] was tested, and the IC50 was 13 nM.
Work on COC1CN(C(=O)[C@@]2(C)CN(C(C)C)C(=O)c3c(O)c(=O)c(-c4ncc(Cc5ccc(F)cc5)s4)cn32)C1 [Example 237] yielded an IC50 of 13 nM.
Work on COCC1CN(C(=O)[C@@]2(C)CN(C(C)C)C(=O)c3c(O)c(=O)c(-c4ncc(Cc5ccc(F)cc5)s4)cn32)C1 [Example 238] yielded an IC50 of 18 nM.
